Assay results reported in patent US20020187123A1, “Therapeutic compositions and methods for the inhibition of angiogenesis” (priority 2001, published 2002).

What was measured:
[1] = test system: VEGF-stimulated endothelial vessel formation by aortic endothelium; experiment: Aortic ring explant assay of endothelial vessel morphogenesis; assay type: cell-based; conditions: aortae of wild type mice
Text: The results described above were extended using an aortic ring explant assay of endothelial vessel morphogenesis. […] The more rapid and extensive growth in E-selectin deficient aortae is therefore consistent with the hypothesis that E-selectin is required for endostatin activity.

tumor growth = conditions: mouse model; cited from earlier work
[2] = test system: bFGF-stimulated corneal angiogenesis; experiment: Corneal angiogenesis assay; assay type: in vivo, mice; conditions: delivered by intraperitoneal osmotic pump
Text: The effect of endostatin on bFGF-stimulated corneal angiogenesis was examined in wild type and E-selectin deficient mice.

[3] = test system: isolated, cultured human endothelial cells; experiment: Endostatin responsiveness of isolated, cultured human endothelial cells; assay type: cell-based

## endostatin
[1]
  effect on vessel formation: vessel formation was inhibited
Tumor growth
  effect on tumor growth: dramatic reduction in tumor growth
[2]; E-selectin deficient mice
  effect on FGF-stimulated corneal angiogenesis: not in the E-selectin deficient mice
[2]; wild type mice
  effect on FGF-stimulated corneal angiogenesis: inhibited FGF-stimulated angiogenesis

## tumor necrosis factor-alpha
[3]; isolated cultured human endothelial cells, even in the presence of E-selectin
  effect on endostatin responsiveness: appears to block and/or prevent endostatin responsiveness

B1: E-selectin (protein, UniProt P16581 22-610, looked up)
E-selectin: WSYNTSTEAMTYDEASAYCQQRYTHLVAIQNKEEIEYLNSILSYSPSYYWIGIRKVNNVWVWVGTQKPLTEEAKNWAPGEPNNRQKDEDCVEIYIKREKDVGMWNDERCSKKKLALCYTAACTNTSCSGHGECVETINNYTCKCDPGFSGLKCEQIVNCTALESPEHGSLVCSHPLGNFSYNSSCSISCDRGYLPSSMETMQCMSSGEWSAPIPACNVVECDAVTNPANGFVECFQNPGSFPWNTTCTFDCEEGFELMGAQSLQCTSSGNWDNEKPTCKAVTCRAVRQPQNGSVRCSHSPAGEFTFKSSCNFTCEEGFMLQGPAQVECTTQGQWTQQIPVCEAFQCTALSNPERGYMNCLPSASGSFRYGSSCEFSCEQGFVLKGSKRLQCGPTGEWDNEKPTCEAVRCDAVHQPPKGLVRCAHSPIGEFTYKSSCAFSCEEGFELHGSTQLECTSQGQWTEEVPSCQVVKCSSLAVPGKINMSCSGEPVFGTVCKFACPEGWTLNGSAARTCGATGHWSGLLPTCEAPTESNIPLVAGLSAAGLSLLTLAPFLLWLRKCLRKAKKFVPASSCQSLESDGSYQKPSYIL
notes: a cell surface glycoprotein expressed by the endothelium
[3]; isolated, cultured human endothelial cells
  effect on endostatin responsiveness: can be sufficient to confer endostatin responsiveness
